Assay results: patent US20100137313A1 (ASTRAZENECA AB, priority 2008, published 2010)

Target: S. pneumoniae Topoisomerase IV ATPase (ParE) (Streptococcus pneumoniae serotype 4, UniProt Q59961)
Test: S. pneumoniae Topoisomerase IV ATPase inhibition
Format: biochemical
Settings: values marked * are an average of two or more data points, read-out: % Inh (13 μM) of S. pneumoniae Topoisomerase IV ATPase
In short: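 S. pneumoniae ParE (1.25 nM) ATPase with 160 μM ATP and 5 μg/ml sheared DNA in pH 8.0 Tris, Mg2+, DTT, Brij-35; phosphate detected by malachite green/molybdate at 650 nm. Normalised to 2% DMSO (0%) and 20 μM EDTA (100%); IC50 from 10 concentrations.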

S. pneumoniae Topoisomerase IV ATPase (ParE), sequence (Q59961 whole entry): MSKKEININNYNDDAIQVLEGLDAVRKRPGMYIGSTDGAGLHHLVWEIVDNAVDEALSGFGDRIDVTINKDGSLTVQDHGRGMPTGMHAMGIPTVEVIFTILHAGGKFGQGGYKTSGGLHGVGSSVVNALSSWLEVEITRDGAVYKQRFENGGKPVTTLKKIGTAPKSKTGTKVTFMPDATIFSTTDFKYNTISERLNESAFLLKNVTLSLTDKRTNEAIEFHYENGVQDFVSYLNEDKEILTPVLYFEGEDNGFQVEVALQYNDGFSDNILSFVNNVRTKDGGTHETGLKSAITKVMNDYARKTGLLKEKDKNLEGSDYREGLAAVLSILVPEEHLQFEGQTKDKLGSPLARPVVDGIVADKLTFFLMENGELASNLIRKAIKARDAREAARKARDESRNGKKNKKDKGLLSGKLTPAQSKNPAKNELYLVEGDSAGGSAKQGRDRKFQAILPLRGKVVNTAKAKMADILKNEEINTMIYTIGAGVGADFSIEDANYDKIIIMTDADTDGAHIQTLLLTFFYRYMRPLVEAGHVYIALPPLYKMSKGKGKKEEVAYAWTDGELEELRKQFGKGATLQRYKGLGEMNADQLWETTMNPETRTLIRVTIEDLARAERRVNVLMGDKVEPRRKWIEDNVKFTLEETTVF

| Compound | inhibition at 13 µM |
| --- | --- |
| COc1ncc(-c2cnc(Nc3cc(C)cc(C)c3)nc2-n2nc(C(F)(F)F)cc2C)cc1C(=O)O [Example 646, 5-{2-[(3,5-dimethylphenyl)amino]-4-[5-methyl-3-(trifluoromethyl)-1H-pyrazol-1-yl]pyrimidin-5-yl}-2-methoxypyridine-3-carboxylic acid] | 100% |
| COc1ncc(-c2cnc(Nc3cc(C)cc(C)c3)nc2-n2ccc(C(F)(F)F)n2)cc1C(=O)O [Example 648, 5-{2-[(3,5-dimethylphenyl)amino]-4-[3-(trifluoromethyl)-1H-pyrazol-1-yl]pyrimidin-5-yl}-2-methoxypyridine-3-carboxylic acid] | 100% |
| COc1cc(Nc2ncc(-c3cccc(/C=C/C(=O)O)c3)c(-n3nc(C(F)(F)F)cc3C)n2)cc(S(C)(=O)=O)c1 [Example 653] | 86% |
| O=C(O)/C=C/c1cccc(-c2cnc(Nc3ccc4c(c3)CCC4)nc2-n2ccc(C(F)(F)F)n2)c1 [Example 655, (2E)-3-(3-{2-(2,3-dihydro-1H-inden-5-ylamino)-4-[3-(trifluoromethyl)-1H-pyrazol-1-yl]pyrimidin-5-yl}phenyl)prop-2-enoic acid] | 89% |
| Cc1cc(C(F)(F)F)nn1-c1nc(Nc2ccc3c(c2)CCC3)ncc1-c1cccc(/C=C/C(=O)O)c1 [Example 656, (2E)-3-(3-{2-(2,3-dihydro-1H-inden-5-ylamino)-4-[5-methyl-3-(trifluoromethyl)-1H-pyrazol-1-yl]pyrimidin-5-yl}phenyl)prop-2-enoic acid] | 78% |
| O=C(O)/C=C/c1cccc(-c2cnc(Nc3ccc4c(c3)OCO4)nc2-n2ccc(C(F)(F)F)n2)c1 [Example 657, (2E)-3-(3-{2-(1,3-benzodioxol-5-ylamino)-4-[3-(trifluoromethyl)-1H-pyrazol-1-yl]pyrimidin-5-yl}phenyl)prop-2-enoic acid] | 100% |
| Cc1cc(C(F)(F)F)nn1-c1nc(Nc2ccc3c(c2)OCO3)ncc1-c1cccc(/C=C/C(=O)O)c1 [Example 658, (2E)-3-(3-{2-(1,3-benzodioxol-5-ylamino)-4-[5-methyl-3-(trifluoromethyl)-1H-pyrazol-1-yl]pyrimidin-5-yl}phenyl)prop-2-enoic acid] | 96% |
| COc1cc(Nc2ncc(-c3cccc(/C=C/C(=O)O)c3)c(-n3ccc(C(F)(F)F)n3)n2)cc(S(C)(=O)=O)c1 [Example 659, (2E)-3-[3-(2-{[3-methoxy-5-(methylsulfonyl)phenyl]amino}-4-[3-(trifluoromethyl)-1H-pyrazol-1-yl]pyrimidin-5-yl)phenyl]prop-2-enoic acid] | 100% |
| Cc1ccc(S(=O)(=O)n2ccc3cc(Nc4ncc(-c5cncc(C(=O)O)c5)c(-n5nc(C(F)(F)F)cc5C)n4)ccc32)cc1 [Example 667, 5-{2-({1-[(4-methylphenyl)sulfonyl]-1H-indol-5-yl}amino)-4-[5-methyl-3-(trifluoromethyl)-1H-pyrazol-1-yl]pyrimidin-5-yl}pyridine-3-carboxylic acid] | 56% |
| O=C(O)c1cncc(-c2cnc(Nc3ccc4c(c3)CCC4)nc2-n2ccc(C(F)(F)F)n2)c1 [Example 668, 5-{2-(2,3-dihydro-1H-inden-5-ylamino)-4-[3-(trifluoromethyl)-1H-pyrazol-1-yl]pyrimidin-5-yl}pyridine-3-carboxylic acid] | 85% |
| Cc1cc(C(F)(F)F)nn1-c1nc(Nc2ccc3c(c2)CCC3)ncc1-c1cncc(C(=O)O)c1 [Example 669, 5-{2-(2,3-dihydro-1H-inden-5-ylamino)-4-[5-methyl-3-(trifluoromethyl)-1H-pyrazol-1-yl]pyrimidin-5-yl}pyridine-3-carboxylic acid] | 68% |
| O=C(O)c1cncc(-c2cnc(Nc3ccc4c(c3)OCO4)nc2-n2ccc(C(F)(F)F)n2)c1 [Example 670, 5-{2-(1,3-benzodioxol-5-ylamino)-4-[3-(trifluoromethyl)-1H-pyrazol-1-yl]pyrimidin-5-yl}pyridine-3-carboxylic acid] | 100% |
| Cc1cc(C(F)(F)F)nn1-c1nc(Nc2ccc3c(c2)OCO3)ncc1-c1cncc(C(=O)O)c1 [Example 671, 5-{2-(1,3-benzodioxol-5-ylamino)-4-[5-methyl-3-(trifluoromethyl)-1H-pyrazol-1-yl]pyrimidin-5-yl}pyridine-3-carboxylic acid] | 92% |
| COc1cc(Nc2ncc(-c3cncc(C(=O)O)c3)c(-n3ccc(C(F)(F)F)n3)n2)cc(S(C)(=O)=O)c1 [Example 672, 5-(2-{[3-methoxy-5-(methylsulfonyl)phenyl]amino}-4-[3-(trifluoromethyl)-1H-pyrazol-1-yl]pyrimidin-5-yl)pyridine-3-carboxylic acid] | 100% |
| COc1cc(Nc2ncc(-c3cncc(C(=O)O)c3)c(-n3nc(C(F)(F)F)cc3C)n2)cc(S(C)(=O)=O)c1 [Example 673, 5-(2-{[3-methoxy-5-(methylsulfonyl)phenyl]amino}-4-[5-methyl-3-(trifluoromethyl)-1H-pyrazol-1-yl]pyrimidin-5-yl)pyridine-3-carboxylic acid] | 100% |
| COc1cc(Nc2ncc(-c3cnc(OC)c(C(=O)O)c3)c(-n3ccc(C(F)(F)F)n3)n2)cc(OC)c1 [Example 675, 5-{2-[(3,5-dimethoxyphenyl)amino]-4-[3-(trifluoromethyl)-1H-pyrazol-1-yl]pyrimidin-5-yl}-2-methoxypyridine-3-carboxylic acid] | 100% |
| COc1cc(Nc2ncc(-c3cnc(OC)c(C(=O)O)c3)c(-n3nc(C(F)(F)F)cc3C)n2)cc(OC)c1 [Example 677, 5-{2-[(3,5-dimethoxyphenyl)amino]-4-[5-methyl-3-(trifluoromethyl)-1H-pyrazol-1-yl]pyrimidin-5-yl}-2-methoxypyridine-3-carboxylic acid] | 100% |
| CNC(=O)c1cncc(-c2cnc(Nc3cc(OC)cc(OC)c3)nc2-n2ccc(C(F)(F)F)n2)c1 [Example 678, 5-{2-[(3,5-dimethoxyphenyl)amino]-4-[3-(trifluoromethyl)-1H-pyrazol-1-yl]pyrimidin-5-yl}-N-methylpyridine-3-carboxamide] | 100% |
| CONC(=O)c1cncc(-c2cnc(Nc3cc(OC)cc(OC)c3)nc2-n2ccc(C(F)(F)F)n2)c1 [Example 680, 5-{2-[(3,5-dimethoxyphenyl)amino]-4-[3-(trifluoromethyl)-1H-pyrazol-1-yl]pyrimidin-5-yl}-N-methoxypyridine-3-carboxamide] | 100% |
| CONC(=O)c1cncc(-c2cnc(Nc3cc(OC)cc(OC)c3)nc2-n2nc(C(F)(F)F)cc2C)c1 [Example 681, 5-{2-[(3,5-dimethoxyphenyl)amino]-4-[5-methyl-3-(trifluoromethyl)-1H-pyrazol-1-yl]pyrimidin-5-yl}-N-methoxypyridine-3-carboxamide] | 100% |
| COc1cc(Nc2ncc(-c3cncc(C(=O)NCCO)c3)c(-n3ccc(C(F)(F)F)n3)n2)cc(OC)c1 [Example 682, 5-{2-[(3,5-dimethoxyphenyl)amino]-4-[3-(trifluoromethyl)-1H-pyrazol-1-yl]pyrimidin-5-yl}-N-(2-hydroxyethyl)pyridine-3-carboxamide] | 100% |
| COc1cc(Nc2ncc(-c3cncc(C(=O)NCCO)c3)c(-n3nc(C(F)(F)F)cc3C)n2)cc(OC)c1 [Example 683, 5-{2-[(3,5-dimethoxyphenyl)amino]-4-[5-methyl-3-(trifluoromethyl)-1H-pyrazol-1-yl]pyrimidin-5-yl}-N-(2-hydroxyethyl)pyridine-3-carboxamide] | 100% |
| COc1cc(Nc2ncc(-c3cncc(C(=O)NCCS(C)(=O)=O)c3)c(-n3ccc(C(F)(F)F)n3)n2)cc(OC)c1 [Example 684, 5-{2-[(3,5-dimethoxyphenyl)amino]-4-[3-(trifluoromethyl)-1H-pyrazol-1-yl]pyrimidin-5-yl}-N-[2-(methylsulfonyl)ethyl]pyridine-3-carboxamide] | 100% |
| COc1cc(Nc2ncc(-c3cncc(C(=O)NCCS(C)(=O)=O)c3)c(-n3nc(C(F)(F)F)cc3C)n2)cc(OC)c1 [Example 685, 5-{2-[(3,5-dimethoxyphenyl)amino]-4-[5-methyl-3-(trifluoromethyl)-1H-pyrazol-1-yl]pyrimidin-5-yl}-N-[2-(methylsulfonyl)ethyl]pyridine-3-carboxamide] | 100% |
| COc1cc(Nc2ncc(-c3cncc(C(=O)NS(C)(=O)=O)c3)c(-n3ccc(C(F)(F)F)n3)n2)cc(OC)c1 [Example 686, 5-{2-[(3,5-dimethoxyphenyl)amino]-4-[3-(trifluoromethyl)-1H-pyrazol-1-yl]pyrimidin-5-yl}-N-(methylsulfonyl)pyridine-3-carboxamide] | 100% |
| COc1cc(Nc2ncc(-c3cncc(C(=O)NS(C)(=O)=O)c3)c(-n3nc(C(F)(F)F)cc3C)n2)cc(OC)c1 [Example 687, 5-{2-[(3,5-dimethoxyphenyl)amino]-4-[5-methyl-3-(trifluoromethyl)-1H-pyrazol-1-yl]pyrimidin-5-yl}-N-(methylsulfonyl)pyridine-3-carboxamide] | 100% |
| CC(=O)c1cccc(Nc2ncc(-c3cccc(/C=C/C(=O)O)c3)c(-n3ccc(C(F)(F)F)n3)n2)c1 [Example 688, (2E)-3-(3-{2-[(3-acetylphenyl)amino]-4-[3-(trifluoromethyl)-1H-pyrazol-1-yl]pyrimidin-5-yl}phenyl)prop-2-enoic acid] | 99% |
| CC(=O)c1cccc(Nc2ncc(-c3cccc(/C=C/C(=O)O)c3)c(-n3nc(C(F)(F)F)cc3C)n2)c1 [Example 689, (2E)-3-(3-{2-[(3-acetylphenyl)amino]-4-[5-methyl-3-(trifluoromethyl)-1H-pyrazol-1-yl]pyrimidin-5-yl}phenyl)prop-2-enoic acid] | 99% |
